Data set [1] is described as follows: metabolic stability in human liver microsomes. The format is in vitro ADME. Particulars: human, microsomes. The protocol:
The metabolic stability of compound 22 was tested prior to the next phase of in vivo study. […] The maximum tolerated dose (MTD) study was subsequently performed to investigate its in vivo toxicity (FIGS. 4A and 4B). The second major limitation of Pyr3 is its toxicity due to its alkylating tail moiety. While replacing only the fast-metabolizing head ester group in Pyr3 with a stable amide (compound 79) improved metabolic stability, a single IP injection of compound 79 at 200 mg/kg killed all mice within 24 h.
A general note: Liver microsomes are a subcellular fraction often used to study metabolism.

A further data set concerns the target T1, hTRPC7 (Homo sapiens, UniProt Q9HCX4).
T1 construct: expressed in transfected cells; host or cells: HEK293, transient transfection, pMO vector
T1 sequence (Q9HCX4 1-862): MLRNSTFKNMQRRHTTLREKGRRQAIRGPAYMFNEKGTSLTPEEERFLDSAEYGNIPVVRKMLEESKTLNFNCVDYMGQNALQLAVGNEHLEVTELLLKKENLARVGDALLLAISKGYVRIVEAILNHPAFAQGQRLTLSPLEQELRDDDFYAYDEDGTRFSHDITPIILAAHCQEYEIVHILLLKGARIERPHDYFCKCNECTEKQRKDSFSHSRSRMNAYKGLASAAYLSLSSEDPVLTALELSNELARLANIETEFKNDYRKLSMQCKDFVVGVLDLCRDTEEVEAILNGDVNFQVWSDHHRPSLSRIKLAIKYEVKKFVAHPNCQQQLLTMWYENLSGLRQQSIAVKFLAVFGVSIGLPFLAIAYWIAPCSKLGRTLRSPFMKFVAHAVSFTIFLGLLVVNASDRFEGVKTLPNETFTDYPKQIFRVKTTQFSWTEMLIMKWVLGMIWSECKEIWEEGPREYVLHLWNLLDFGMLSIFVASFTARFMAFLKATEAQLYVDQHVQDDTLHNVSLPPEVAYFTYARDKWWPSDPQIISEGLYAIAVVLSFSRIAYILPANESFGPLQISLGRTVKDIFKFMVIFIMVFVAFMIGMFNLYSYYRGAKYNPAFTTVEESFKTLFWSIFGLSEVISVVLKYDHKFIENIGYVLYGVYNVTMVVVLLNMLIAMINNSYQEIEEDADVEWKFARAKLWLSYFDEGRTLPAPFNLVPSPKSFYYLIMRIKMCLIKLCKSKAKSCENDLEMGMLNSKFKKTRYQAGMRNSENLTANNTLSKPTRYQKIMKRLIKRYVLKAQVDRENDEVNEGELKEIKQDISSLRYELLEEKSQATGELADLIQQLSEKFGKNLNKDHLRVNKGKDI
The experiment in a line: whole-cell patch clamp selectivity, HEK 293 cells overexpressing hTRPC7. The class given is cell-based. Particulars: HEK293, with agonist, solutions without Ca2+, read-out: % of the current of hTRPC7 inhibited. The protocol: Human embryonic kidney 293 (HEK293; catalog number CRL-1573) cells were cultured in Dulbecco's modified Eagle's medium (Invitrogen) supplemented with 10% fetal bovine serum and 1% penicillin-streptomycin at 37° C. and 5% CO2. Constructs cloned in pMO (a pcDNA3-modified vector) were co-transfected with GFP-pMO, using Lipofectamine 2000 (Invitrogen) according to the manufacturer's instructions. Macroscopic currents in the whole-cell patch clamp configuration were recorded 18-24 h post-transfection. The extracellular solution contained 140 mM NaCl, 6 mM KCl, 2 mM MgCl2, 10 mM HEPES, and 10 mM glucose (pH 7.4). Pipettes were made of borosilicate glass (outer diameter, 1.5 mm; inner diameter, 1.10 mm; Sutter Instruments) and fire-polished with a resistance between 2.8 and 4.0 megaohms when filled with an intracellular solution that contained 140 mM CsCl, 5 mM EGTA, and 10 mM HEPES, pH 7.2. Currents were recorded with a Multiclamp 700B amplifier (Molecular Devices) using a 1-s ramp from −100 to 100 mV. […] Data were acquired with a sampling rate of 20 kHz, low-pass filtered (10 kHz), and analyzed offline using Clampfit v10.4.2.0 (Molecular Devices). […]

The record followed here is patent US20230265068A1, “TRANSIENT RECEPTOR POTENTIAL CANONICAL 3 INHIBITORS AND METHODS OF USE THEREOF” (University of Tennessee Research Foundation, priority 2020, published 2023).

The term half-life denotes the time in which the quantity being followed falls by half. Read a high half-life as slow decline. In data set [1], `CCNC(=O)c1cnn(-c2ccc(-n3ccc(Cl)c(Cl)c3=O)cc2)c1C(F)(F)F` [Compound 22] displayed a half-life of more than 4 h. Further, the inhibition at 10 µM on hTRPC7 was approximately 22%.
